Assays:
[1] = Moisture absorption/desorption test; assay type: physicochemical; conditions: for Weight change ratio, Adsorption / Weight change ratio, Desorption: 25° C.
Method: Moisture absorption/desorption test was carried out with respect to Compound A, monofumarate of Compound A, hemifumarate of Compound A, hemitartrate of Compound A and monophosphate of Compound A, to research the presence or absence of the characteristic of channel hydrate.
In the moisture absorption/desorption test, measurements were carried out according to the following conditions.
A dedicated quartz holder was filled with about from 5 to 10 mg of sample, and a weight of the sample at each humidity was measured and recorded in a continuous manner under the following conditions. Handling of the devices including data processing was based on the method and the process indicated in each device.
Device: VTI SA+ (manufactured by TA Instruments Inc.)
Drying temperature: 60° C.
Temperature rising speed: 1° C./min.
Equilibrium in drying: It is confirmed that no reduction of 0.01 wt % occurs in 5 minutes, in a range not exceeding 300 minutes.
Temperature for measurement: 25° C.
Equilibrium in humidification: It is confirmed that no increase of 0.01 wt % occurs in 5 minutes, in a range not exceeding 120 minutes.
Relative humidity program: Raised by 5% RH from 5% RH to 95% RH, and lowered by 5% RH from 95% RH to 5% RH.

[2] = Solid stability test (severe test), 60° C.; assay type: physicochemical
Method: Solid stability was measured under the following conditions, with respect to monofumarate of Compound A, hemitartrate of Compound A and monophosphate of Compound A which were obtained in the Examples and the Reference Examples, when they were stored for 2 weeks or 4 weeks at 60° C.
Storage condition: 60° C. (Sealed)
Point of measurement: 2 weeks and 4 weeks
Storage amount: About 30 mg
Storage container: Brown glass container
Method of preparing sample solution: Sample was dissolved in 50% acetonitrile such that a concentration of the sample would be 0.4 mg/mL.
In the Table, A and B refer to percentages of the total mass of analogous substance of less than 0.1%, and 0.1% or more and less than 0.5%, respectively. Incidentally, the value marked with * was measured at 2 weeks and the others were measured at 4 weeks.

[3] = Blood concentration measurement test after oral administration; conditions: mice
Method: These administration solutions were orally administered to mice (Balb/cA) which had been bred under a feeding condition, at a dose of 10 mL per 1 kg body weight, with a sonde for oral administration. After the administration, the mice were returned to a cage for mice and conditions were checked. Inside the cage was provided with a condition where water and food were accessible ad libitum. After 0.25, 0.5, 1, 2, 4 and 6 hours from the administration, the mice were anesthetized with isoflurane, and 60 μL of blood was collected from orbital sinus with a capillary blood collection tube.
The collected blood was ice cooled, and blood plasma was separated by a centrifugal operation. The mice after the blood collection was returned to an animal breeding cage, and conditions after recovery from the anesthesia were checked. When the last blood collection was finished, the mice were euthanized by cervical dislocation, after a level check of isoflurane anesthesia.
AUC0-6 hr, Cmax and Tmax were calculated by linear-log trapezoid method with Phoenix WinNonlin (v6.3.0) which is a software manufactured by Pharsight Corporation, from a concentration of Compound A in each blood plasma measured by MRM method with LC-MS/MS.

A431 cells / TMD8 cells = experiment: Proliferation inhibitory activity against cell lines expressing BTK and EGFR, and selectivity; assay type: cell-based, human
Text: TMD8 cells, which are of a diffuse large B-cell lymphoma cell line expressing BTK, were suspended in RPMI1640 medium (manufactured by Life Technologies Corp.) containing 10% fetal bovine serum. A431 cells, which are of an EGFR-overexpressing, highly activated human epidermoid carcinoma cell line, were suspended in DMEM, high glucose medium (manufactured by Life Technologies Corp.) containing 10% fetal bovine serum. The cell suspensions were inoculated into each well of 384-well flat-bottomed microplates, and the cells were cultured for 1 day at 37° C. in an incubator containing 5% carbon dioxide gas. […] A DMSO solution of the test compounds was diluted with the medium used in the suspension of the each cell, and this was added to each of the wells of the cell culture plates such that the final concentration of DMSO would be 0.2%. The cells were further cultured for 3 days at 37° C. in an incubator containing 5% carbon dioxide gas. […] Proliferation inhibition ratio (%)=(C−T)/(C−C0)×100
C0: Luminescence intensity of a well measured before the addition of the test compound

[4] = 50 mg/kg in terms of Compound A, 0.5% HPMC suspension, plasma Compound A

C=CC(=O)N1CCC[C@@H](n2nc(C(=O)Nc3nc4ccccc4o3)c3c(N)ncnc32)C1.O=C(O)/C=C/C(=O)O [monofumarate of Compound A, (R)-1-(1-acryloylpiperidin-3-yl)-4-amino-N-(benzo[d]oxazol-2-yl)-1H-pyrazolo[3,4-d]pyrimidine-3-carboxamide.monofumarate]
Weight change ratio, Adsorption ([1]; relative humidity 5%): 0.01%
Weight change ratio, Desorption ([1]; relative humidity 5%): 0.05%
Weight change ratio, Adsorption ([1]; relative humidity 20%): 0.14%
Weight change ratio, Desorption ([1]; relative humidity 20%): 0.17%
Weight change ratio, Adsorption ([1]; relative humidity 40%): 0.30%
Weight change ratio, Desorption ([1]; relative humidity 40%): 0.33%
Weight change ratio, Adsorption ([1]; relative humidity 60%): 0.37%
Weight change ratio, Desorption ([1]; relative humidity 60%): 0.41%
Weight change ratio, Adsorption ([1]; relative humidity 80%): 0.45%
Weight change ratio, Desorption ([1]; relative humidity 80%): 0.49%
Weight change ratio, Adsorption ([1]; relative humidity 95%): 0.60%
Weight change ratio, Desorption ([1]; relative humidity 95%): 0.60%
mass change (increase) ([1]; relative humidity of 95%): less than 1%
total mass of analogous substance ([2]; 60° C. (Sealed), 4 weeks): A (less than 0.1%)
solid stability (in words) ([2]; 60° C., compared to hemitartrate or monophosphate): excellent solid stabilities
Cmax relative to that of Compound A ([3]; 50 mg/kg): about two fold
AUC0-6 hr [3, 4]: 7.33 µM·h
Cmax [3, 4]: 7.63 µM
Tmax [3, 4]: 15 min
BTK inhibition selectivity in the cell proliferation inhibition ratio relative to Comparative compound 1 (A431 cells / TMD8 cells; A431/TMD8): about 65 times
A431 cell proliferation inhibition ratio/TMD8 cell proliferation inhibition ratio (A431 cells / TMD8 cells; GI50 based, 3 days culture, CELLTITER GLO): 7643

From patent publication US10280174B2, “Salt of fused pyrimidine compound and crystal thereof” (TAIHO PHARMACEUTICAL CO., LTD., priority 2015, dated 2019)
